Source: patent publication US20180153848A1, “CABAZITAXEL FAT EMULSION, AND PREPARATION METHOD AND USE THEREOF” (JIANGSU TASLY DIYI PHARMACEUTICAL CO., LTD., priority 2015, published 2018)

Assays:
[1] = Investigation on the solubility of cabazitaxel in oils for injection, with low temperature challenge test; assay type: physicochemical; design: key to dissolved state in oil for injection: —: Completely insoluble; details: for dissolved state in oil for injection: 70° C. with stirring
Procedure: In this Test Example, appropriate amounts of cabazitaxel were weighed, respectively placed into medium chain triglyceride for injection, soybean oil, olive oil, castor oil and palm oil at 70° C., and heated with stirring, to observe the dissolved state thereof. The solutions with the drug dissolved were stored at a condition of 4-6° C. for 72 hours, to perform a low temperature challenge test. The appearance changes of the solutions at 72 hours in the low temperature storage were observed.

[2] = cited from earlier work
Beagle dogs = details: intravenous injection of 0.3% or 0.35% Tween-80; cited from earlier work

With `CO[C@H]1C(=O)[C@]2(C)[C@@H](OC)C[C@H]3OC[C@@]3(OC(C)=O)[C@H]2[C@H](OC(=O)c2ccccc2)[C@]2(O)C[C@H](OC(=O)[C@H](O)[C@@H](NC(=O)OC(C)(C)C)c3ccccc3)C(C)=C1C2(C)C` [cabazitaxel, 4-acetyloxy-2α-benzoyloxy-5β,20-epoxy-1-hydroxy-7β, 10β-dimethoxy-9-oxotax-11-en-13 α-yl(2R,3S)-3-t-butoxycarbonylamino-2-hydroxy-3-phenylpropionate] the “solubility in medium chain triglycerides” value [1] was “about 50 mg/g”, the “solubility in medium chain triglyceride for injection” value ([1]; after storage at low temperature (4-6° C.) for 72 h) was “about 50 mg/g” and the “dissolved state in oil for injection” value ([1]; castor oil, Concentration (mg/g) 10 h) was “cannot be fully dissolved”. The “dissolved state in oil for injection” value ([1]; castor oil, Concentration (mg/g) 20 h) was “—”, the “dissolved state in oil for injection” value ([1]; castor oil, Concentration (mg/g) 30 h) was “—” and the “dissolved state in oil for injection” value ([1]; castor oil, Concentration (mg/g) 40 h) was “—”. The “dissolved state in oil for injection” value ([1]; castor oil, Concentration (mg/g) 50 h) was “—”, the “dissolved state in oil for injection” value ([1]; castor oil, Concentration (mg/g) 60 h) was “—” and the “solubility in long chain oils” value ([1]; long chain oils such as soybean oil, olive oil, castor oil, palm oil) was “less than 10 mg/g”. For the same molecule, the “dissolved state in oil for injection” value ([1]; medium chain triglyceride, Concentration (mg/g) 60 h) was “rapidly dissolved”, the “dissolved state in oil for injection” value ([1]; olive oil, Concentration (mg/g) 10 h) was “cannot be fully dissolved” and the “dissolved state in oil for injection” value ([1]; olive oil, Concentration (mg/g) 20 h) was “—”. For the same molecule, the “dissolved state in oil for injection” value ([1]; olive oil, Concentration (mg/g) 30 h) was “—”, the “dissolved state in oil for injection” value ([1]; olive oil, Concentration (mg/g) 40 h) was “—” and the “dissolved state in oil for injection” value ([1]; olive oil, Concentration (mg/g) 50 h) was “—”. The “dissolved state in oil for injection” value ([1]; olive oil, Concentration (mg/g) 60 h) was “—”, the “dissolved state in oil for injection” value ([1]; palm oil, Concentration (mg/g) 10 h) was “cannot be fully dissolved” and the “dissolved state in oil for injection” value ([1]; palm oil, Concentration (mg/g) 20 h) was “—”. For the same molecule, the “dissolved state in oil for injection” value ([1]; palm oil, Concentration (mg/g) 30 h) was “—”, the “dissolved state in oil for injection” value ([1]; palm oil, Concentration (mg/g) 40 h) was “—” and the “dissolved state in oil for injection” value ([1]; palm oil, Concentration (mg/g) 50 h) was “—”. For the same molecule, the “dissolved state in oil for injection” value ([1]; palm oil, Concentration (mg/g) 60 h) was “—”, the “dissolved state in oil for injection” value ([1]; soybean oil, Concentration (mg/g) 10 h) was “cannot be fully dissolved” and the “dissolved state in oil for injection” value ([1]; soybean oil, Concentration (mg/g) 20 h) was “—”. The “dissolved state in oil for injection” value ([1]; soybean oil, Concentration (mg/g) 30 h) was “—”, the “dissolved state in oil for injection” value ([1]; soybean oil, Concentration (mg/g) 40 h) was “—” and the “dissolved state in oil for injection” value ([1]; soybean oil, Concentration (mg/g) 50 h) was “—”. The “dissolved state in oil for injection” value ([1]; soybean oil, Concentration (mg/g) 60 h) was “—”, the “solubility in ethanol and other organic solvents” value [2] was “soluble” and the solubility in water [2] was “almost insoluble”.
In the case of Tween-80, the “grade of allergic reactions” value (Beagle dogs) is given as no less than 3.
